Assay results from ChEMBL document CHEMBL1133875, “1-(Arylpiperazinylamidoalkyl)-pyrimidones: orally active inhibitors of lipoprotein-associated phospholipase A(2)” (Bioorg Med Chem Lett, 2001).

What was measured:
[1] = biological target: T1, Platelet-activating factor acetylhydrolase (Homo sapiens, UniProt Q13093); test: Inhibitory activity against human lipoprotein associated phospholipase A2 (Lp-PLA2)
T1 sequence (Q13093 whole entry): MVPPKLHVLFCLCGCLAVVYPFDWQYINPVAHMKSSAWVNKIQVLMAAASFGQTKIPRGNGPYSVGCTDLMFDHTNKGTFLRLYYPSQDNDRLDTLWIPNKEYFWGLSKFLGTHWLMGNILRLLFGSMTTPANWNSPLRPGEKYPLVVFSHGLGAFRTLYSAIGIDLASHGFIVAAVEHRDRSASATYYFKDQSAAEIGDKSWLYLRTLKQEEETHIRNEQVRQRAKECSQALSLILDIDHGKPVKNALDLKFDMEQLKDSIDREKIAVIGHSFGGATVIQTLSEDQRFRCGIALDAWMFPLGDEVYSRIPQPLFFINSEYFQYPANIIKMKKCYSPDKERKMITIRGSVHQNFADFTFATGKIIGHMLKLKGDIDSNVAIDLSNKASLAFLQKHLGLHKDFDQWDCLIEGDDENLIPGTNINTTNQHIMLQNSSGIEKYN

[2] = organism: Homo sapiens; test: Intrinsic clearance in human liver microsomes; format: ADME, Microsome
[3] = organism: Rattus norvegicus; test: Intrinsic clearance in rat liver microsomes; format: ADME, Microsome

O=C(O)Cn1cc(Cc2cn(CCCC(=O)N3CCN(c4ccc(Cl)c(Cl)c4)CC3)c(SCc3ccc(F)cc3)nc2=O)cnc1=O
IC50 [1]: 9 nM

Cc1ncc(Cc2cn(CC(=O)N3CCN(c4ccc(Cl)cc4)CC3)c(SCc3ccc(F)cc3)nc2=O)cn1
IC50 [1]: 18 nM
CLi [2]: 7 mL/min/g
CLi [3]: 3 mL/min/g

O=C(Cn1cc(Cc2cnc(C(F)(F)F)nc2)c(=O)nc1SCc1ccc(F)cc1)N1CCN(c2ccc(Cl)cc2)CC1
IC50 [1]: 69 nM

CCCCCCCCN1CCN(C(=O)Cn2cc(Cc3cnn(C)c3)c(=O)nc2SCc2ccc(F)cc2)CC1
IC50 [1]: 24 nM

O=C(Cn1cc(Cc2cncnc2)c(=O)nc1SCc1ccc(F)cc1)N1CCN(C(=O)c2ccccc2)CC1
IC50 [1]: 1280 nM

Cn1cc(Cc2cn(CCCC(=O)N3CCN(c4ccc(Cl)c(Cl)c4)CC3)c(SCc3ccc(F)cc3)nc2=O)cnc1=O
IC50 [1]: 9 nM

COc1ncc(Cc2cn(CC(=O)N3CCN(c4ccc(Cl)cc4)CC3)c(SCc3ccc(F)cc3)nc2=O)cn1
IC50 [1]: 20 nM
CLi [2]: 3 mL/min/g
CLi [3]: 2 mL/min/g

O=C(Cn1cc(Cc2cnc(C3CC3)nc2)c(=O)nc1SCc1ccc(F)cc1)N1CCN(c2ccc(Cl)cc2)CC1
IC50 [1]: 21 nM

Cn1cc(Cc2cn(CC(=O)N3CCN(C4CCCCC4)CC3)c(SCc3ccc(F)cc3)nc2=O)cn1
IC50 [1]: 720 nM

O=C(Cn1cc(Cc2cncnc2)c(=O)nc1SCc1ccc(F)cc1)N1CCN(S(=O)(=O)c2ccccc2)CC1
IC50 [1]: 260 nM

COc1ncc(Cc2cn(CCCC(=O)N3CCN(c4ccc(C(F)(F)F)cc4)CC3)c(SCc3ccc(F)cc3)nc2=O)cn1
IC50 [1]: 2 nM

CCCCCCCC/C=C/CCCCCCCCNC(=O)CCCn1cc(Cc2cncnc2)c(=O)nc1SCc1ccc(F)cc1
IC50 [1]: 0.4 nM

Cn1cc(Cc2cn(CC(=O)N3CCN(c4ccc(Cl)c(Cl)c4)CC3)c(SCc3ccc(F)cc3)nc2=O)cn1
IC50 [1]: 12 nM
CLi [2]: 11 mL/min/g
CLi [3]: 6 mL/min/g

COc1ncc(Cc2cn(CC(=O)N3CCN(c4ccc(Cl)c(Cl)c4)CC3)c(SCc3ccc(F)cc3)nc2=O)cn1
CLi [2]: 7 mL/min/g
CLi [3]: 2 mL/min/g

Cn1cc(Cc2cn(CCCC(=O)N3CCN(c4ccc(C(F)(F)F)cc4)CC3)c(SCc3ccc(F)cc3)nc2=O)cn1
IC50 [1]: 5 nM

O=C(Cn1cc(Cc2cncnc2)c(=O)nc1SCc1ccc(F)cc1)N1CCNCC1
IC50 [1]: 460 nM

COc1ncc(Cc2cn(CCCC(=O)N3CCN(c4ccc(Cl)cc4)CC3)c(SCc3ccc(F)cc3)nc2=O)cn1
IC50 [1]: 8 nM
CLi [2]: > 50 mL/min/g
CLi [3]: 19 mL/min/g

O=C(Cn1cc(Cc2cncnc2)c(=O)nc1SCc1ccc(F)cc1)N1CCN(c2ccccc2)C(=O)C1
IC50 [1]: 6700 nM

Cn1cc(Cc2cn(CCCC(=O)N3CCN(c4ccc(Cl)cc4)CC3)c(SCc3ccc(F)cc3)nc2=O)cn1
IC50 [1]: 3 nM

CC(=O)c1ccc(N2CCN(C(=O)Cn3cc(Cc4cncnc4)c(=O)nc3SCc3ccc(F)cc3)CC2)cc1
IC50 [1]: 130 nM

O=C(Cn1cc(Cc2cnc(N3CCOCC3)nc2)c(=O)nc1SCc1ccc(F)cc1)N1CCN(c2ccc(Cl)cc2)CC1
IC50 [1]: 10 nM
CLi [2]: > 50 mL/min/g
CLi [3]: 13 mL/min/g

COc1ccc(N2CCN(C(=O)Cn3cc(Cc4cncnc4)c(=O)nc3SCc3ccc(F)cc3)CC2)cc1
IC50 [1]: 176 nM

O=C(Cn1cc(Cc2cncnc2)c(=O)nc1SCc1ccc(F)cc1)N1CCN(Cc2ccccc2)CC1
IC50 [1]: 85 nM

O=C(Cn1cc(Cc2cncnc2)c(=O)nc1SCc1ccc(F)cc1)N1CCN(c2ccccc2)CC1
IC50 [1]: 120 nM

Cn1cc(Cc2cn(CC(=O)N3CCN(c4ccc(Cl)cc4)CC3)c(SCc3ccc(F)cc3)nc2=O)cn1
IC50 [1]: 44 nM

O=C(Cn1cc(Cc2cncnc2)c(=O)nc1SCc1ccc(F)cc1)N1CCN(c2cncnc2)CC1
IC50 [1]: 410 nM

CC(C)(C)c1ncc(Cc2cn(CC(=O)N3CCN(c4ccc(Cl)cc4)CC3)c(SCc3ccc(F)cc3)nc2=O)cn1
IC50 [1]: 34 nM

O=C(Cn1cc(Cc2cncnc2)c(=O)nc1SCc1ccc(F)cc1)N1CCN(c2ccccn2)CC1
IC50 [1]: 350 nM

O=C(Cn1cc(Cc2cncnc2)c(=O)nc1SCc1ccc(F)cc1)N1CCN(c2cccc(Cl)c2)CC1
IC50 [1]: 66 nM

O=C(Cn1cc(Cc2cncnc2)c(=O)nc1SCc1ccc(F)cc1)N1CCN(c2ccc(C(F)(F)F)cc2)CC1
IC50 [1]: 26 nM

CN(C)c1ncc(Cc2cn(CC(=O)N3CCN(c4ccc(Cl)cc4)CC3)c(SCc3ccc(F)cc3)nc2=O)cn1
IC50 [1]: 29 nM

Cn1cc(Cc2cn(CC(=O)N3CCN(c4ccc(Br)cc4)CC3)c(SCc3ccc(F)cc3)nc2=O)cn1
IC50 [1]: 51 nM

Cn1cc(Cc2cn(CC(=O)N3CCN(Cc4ccccc4)C(=O)C3)c(SCc3ccc(F)cc3)nc2=O)cn1
IC50 [1]: 530 nM

Cn1cc(Cc2cn(CC(=O)N3CCN(c4ccc(Cl)cc4)CC3)c(SCc3ccc(F)cc3)nc2=O)cnc1=O
IC50 [1]: 70 nM
CLi [2]: 4 mL/min/g
CLi [3]: 3 mL/min/g

CCCCCCCCCCCCN(C)C(=O)Cn1cc(Cc2cnc(OC)nc2)c(=O)nc1SCc1ccc(F)cc1
IC50 [1]: 1 nM

O=C(O)Cn1cc(Cc2cn(CC(=O)N3CCN(c4ccc(Cl)cc4)CC3)c(SCc3ccc(F)cc3)nc2=O)cnc1=O
IC50 [1]: 89 nM

O=C(Cn1cc(Cc2cncnc2)c(=O)nc1SCc1ccc(F)cc1)N1CCN(c2ccc(F)cc2)CC1
IC50 [1]: 97 nM

COc1ncc(Cc2cn(CCCC(=O)N3CCN(c4ccc(Cl)c(Cl)c4)CC3)c(SCc3ccc(F)cc3)nc2=O)cn1
IC50 [1]: 2 nM
